Laboratory results published in ChEMBL document CHEMBL1126229, “Enol lactone derivatives as inhibitors of human neutrophil elastase and trypsin-like proteases” (Bioorg Med Chem Lett, 1992).
Blank lines part the entries; values can stand above or below the molecule they belong to.

Key:
[1] = target: T1, Neutrophil elastase (Homo sapiens) (UniProt P08246); test: Specificity constant on human neutrophil elastase was determined at 30 percent and at 10 minutes for maximum inhibition with 0 minutes persistence of inhibition
T1 sequence (whole entry): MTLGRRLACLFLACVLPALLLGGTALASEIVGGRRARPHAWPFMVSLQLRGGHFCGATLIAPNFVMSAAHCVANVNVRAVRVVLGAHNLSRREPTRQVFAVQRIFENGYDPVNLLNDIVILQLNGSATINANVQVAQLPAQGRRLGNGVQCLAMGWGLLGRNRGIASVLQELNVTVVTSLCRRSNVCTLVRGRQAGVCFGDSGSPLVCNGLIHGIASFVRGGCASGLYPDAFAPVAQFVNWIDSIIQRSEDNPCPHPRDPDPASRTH

[2] = target: T1, Neutrophil elastase (Homo sapiens); test: Rate constant of acylation on human neutrophil elastase was determined at 30 percent and at 10 minutes for maximum inhibition with 0 minutes persistence of inhibition
[3] = target: T1, Neutrophil elastase (Homo sapiens); test: Binding constant on human neutrophil elastase was determined at 30 percent and at 10 minutes for maximum inhibition with 0 minutes persistence of inhibition
[4] = target: T2, Chymotrypsin-like elastase family member 2A (Sus scrofa) (UniProt P08419); test: Specificity constant on porcine pancreatic elastase was determined at 10 percent and at 73 minutes for maximum inhibition and no enzyme activity was recovered over the 2 h-time
T2 sequence (whole entry): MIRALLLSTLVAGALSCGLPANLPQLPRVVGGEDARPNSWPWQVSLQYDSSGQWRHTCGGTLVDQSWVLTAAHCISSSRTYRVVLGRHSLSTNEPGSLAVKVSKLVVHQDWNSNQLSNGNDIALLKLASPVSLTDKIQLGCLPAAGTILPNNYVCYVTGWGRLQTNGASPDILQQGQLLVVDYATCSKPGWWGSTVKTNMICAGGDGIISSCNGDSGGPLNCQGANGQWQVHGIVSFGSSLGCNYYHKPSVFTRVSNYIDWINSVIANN

[5] = target: T2, Chymotrypsin-like elastase family member 2A (Sus scrofa); test: Binding constant on porcine pancreatic elastase was determined at 10 percent and at 73 minutes for maximum inhibition and no enzyme activity was recovered over the 2 h-time
[6] = target: T2, Chymotrypsin-like elastase family member 2A (Sus scrofa); test: Rate constant of acylation on porcine pancreatic elastase was determined at 10 percent and at 73 minutes for maximum inhibition and no enzyme activity was recovered over the 2 h-time
Plasminogen [7] = target: T3, Plasminogen (Homo sapiens, UniProt P00747); test: Rate constant of deacylation for plasmin; Fast and could not be measured
T3 sequence (P00747 97-580 limits assumed): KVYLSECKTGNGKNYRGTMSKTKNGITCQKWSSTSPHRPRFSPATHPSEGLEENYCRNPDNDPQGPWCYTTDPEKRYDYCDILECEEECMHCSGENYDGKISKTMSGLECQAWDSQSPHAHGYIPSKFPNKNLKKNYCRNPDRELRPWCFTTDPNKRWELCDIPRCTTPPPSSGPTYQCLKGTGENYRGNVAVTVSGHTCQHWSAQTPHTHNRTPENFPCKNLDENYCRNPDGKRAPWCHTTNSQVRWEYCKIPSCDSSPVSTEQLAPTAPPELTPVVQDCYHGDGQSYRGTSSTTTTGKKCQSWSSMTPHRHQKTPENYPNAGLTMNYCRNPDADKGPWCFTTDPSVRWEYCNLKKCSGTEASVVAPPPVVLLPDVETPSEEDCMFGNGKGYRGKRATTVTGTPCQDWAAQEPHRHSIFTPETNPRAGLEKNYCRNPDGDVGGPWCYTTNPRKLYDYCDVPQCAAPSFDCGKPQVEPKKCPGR
T3 sequence (P00747 581-810 limits assumed): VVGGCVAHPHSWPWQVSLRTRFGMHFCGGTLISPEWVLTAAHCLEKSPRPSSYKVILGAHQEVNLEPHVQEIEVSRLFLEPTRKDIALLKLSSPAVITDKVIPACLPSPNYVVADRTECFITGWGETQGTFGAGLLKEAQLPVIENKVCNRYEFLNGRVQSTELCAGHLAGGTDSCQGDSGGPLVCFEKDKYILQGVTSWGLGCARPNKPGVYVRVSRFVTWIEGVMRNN

[8] = target: T4, Urokinase-type plasminogen activator (Homo sapiens, UniProt P00749); test: Rate constant of deacylation for Urokinase-type plasminogen activator
Serine protease 1 [9] = target: T5, Serine protease 1 (Homo sapiens, UniProt P07477); test: Rate constant of deacylation for trypsin
T5 sequence (P07477 whole entry): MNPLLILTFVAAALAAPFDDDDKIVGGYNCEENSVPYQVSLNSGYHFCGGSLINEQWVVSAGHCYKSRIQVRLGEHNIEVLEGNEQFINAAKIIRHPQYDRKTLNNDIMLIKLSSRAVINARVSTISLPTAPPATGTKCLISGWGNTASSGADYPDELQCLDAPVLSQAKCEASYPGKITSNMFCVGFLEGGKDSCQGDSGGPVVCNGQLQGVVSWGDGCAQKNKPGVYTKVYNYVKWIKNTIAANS

Plasminogen [10] = target: T3, Plasminogen; test: Binding constant on plasmin was determined at 0 percent and at 98 minutes for maximum inhibition and no enzyme activity was recovered over the 2 h-time
[11] = target: Tissue-type plasminogen activator (Homo sapiens) (UniProt P00750); test: Binding constant on Tissue type plasminogen activator was determined at 15 percent and at 90 minutes for maximum inhibition and no enzyme activity was recovered over the 2 h-time
Tissue-type plasminogen activator (Homo sapiens), sequence (P00750 36-562 limits assumed): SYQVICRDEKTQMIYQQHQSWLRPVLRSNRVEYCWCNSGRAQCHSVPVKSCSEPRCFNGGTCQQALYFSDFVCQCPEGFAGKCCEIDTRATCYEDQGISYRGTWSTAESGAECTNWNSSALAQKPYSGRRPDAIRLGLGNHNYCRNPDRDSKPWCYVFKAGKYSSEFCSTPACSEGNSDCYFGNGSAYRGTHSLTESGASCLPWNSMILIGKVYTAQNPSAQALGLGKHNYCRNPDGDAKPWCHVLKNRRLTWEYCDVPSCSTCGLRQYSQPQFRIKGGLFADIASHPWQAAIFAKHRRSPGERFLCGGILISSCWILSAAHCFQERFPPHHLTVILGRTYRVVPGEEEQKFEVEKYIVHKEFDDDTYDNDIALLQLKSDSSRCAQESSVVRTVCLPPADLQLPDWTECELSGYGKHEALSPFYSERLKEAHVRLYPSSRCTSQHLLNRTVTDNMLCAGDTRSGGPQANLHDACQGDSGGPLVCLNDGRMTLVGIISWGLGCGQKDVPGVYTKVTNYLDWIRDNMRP

Prothrombin [12] = target: T6, Prothrombin (Homo sapiens, UniProt P00734); test: Binding constant on thrombin was determined at 15 percent and at 98 minutes for maximum inhibition and no enzyme activity was recovered over the 2 h-time
Prothrombin [13] = target: T6, Prothrombin; test: Rate constant of deacylation for thrombin
Serine protease 1 [14] = target: T5, Serine protease 1; test: Binding constant on trypsin was determined at 0 percent and at 99 minutes for maximum inhibition and no enzyme activity was recovered over the 2 h-time
Serine protease 1 [15] = target: T5, Serine protease 1; test: Rate constant of acylation on trypsin was determined at 0 percent and at 99 minutes for maximum inhibition and no enzyme activity was recovered over the 2 h-time
Serine protease 1 [16] = target: T5, Serine protease 1; test: Specificity constant on trypsin was determined at 0 percent and at 99 minutes for maximum inhibition and no enzyme activity was recovered over the 2 h-time
Plasminogen [17] = target: T3, Plasminogen
Plasminogen [18] = target: T3, Plasminogen; remark: listed apart in the source
Prothrombin [19] = target: T6, Prothrombin
Prothrombin [20] = target: T6, Prothrombin; remark: listed apart in the source
[21] = target: Tissue-type plasminogen activator (Homo sapiens) (UniProt P00750)
[22] = target: T4, Urokinase-type plasminogen activator
[23] = target: T4, Urokinase-type plasminogen activator; remark: listed apart in the source
Description: Specificity constant on Urokinase-type plasminogen activator was determined at 0 percent and at 91 minutes for maximum inhibition and no enzyme activity was recovered over the 2 h-time

[24] = target: T1, Neutrophil elastase (Homo sapiens); test: Specificity constant on human neutrophil elastase was determined at 18 percent and at 26 minutes for maximum inhibition and no enzyme activity was recovered over the 2 h-time
[25] = target: T1, Neutrophil elastase (Homo sapiens); test: Rate constant of acylation on human neutrophil elastase was determined at 18 percent and at 26 minutes for maximum inhibition and no enzyme activity was recovered over the 2 h-time
[26] = target: T1, Neutrophil elastase (Homo sapiens); test: Binding constant on human neutrophil elastase was determined at 18 percent and at 26 minutes for maximum inhibition and no enzyme activity was recovered over the 2 h-time
[27] = target: T2, Chymotrypsin-like elastase family member 2A (Sus scrofa); test: Rate constant of acylation on porcine pancreatic elastase was determined at 60 percent and at 30 minutes for maximum inhibition and no enzyme activity was recovered over the 2 h-time
[28] = target: T2, Chymotrypsin-like elastase family member 2A (Sus scrofa); test: Specificity constant on porcine pancreatic elastase was determined at 60 percent and at 30 minutes for maximum inhibition and no enzyme activity was recovered over the 2 h-time
[29] = target: T2, Chymotrypsin-like elastase family member 2A (Sus scrofa); test: Binding constant on porcine pancreatic elastase was determined at 60 percent and at 30 minutes for maximum inhibition and no enzyme activity was recovered over the 2 h-time
Plasminogen [30] = target: T3, Plasminogen; test: Rate constant of acylation on plasmin was determined at 0 percent and at 95 minutes for maximum inhibition and no enzyme activity was recovered over the 2 h-time
Plasminogen [31] = target: T3, Plasminogen; test: Specificity constant on plasmin was determined at 0 percent and at 95 minutes for maximum inhibition and no enzyme activity was recovered over the 2 h-time
Plasminogen [32] = target: T3, Plasminogen; test: Binding constant on plasmin was determined at 0 percent and at 95 minutes for maximum inhibition and no enzyme activity was recovered over the 2 h-time
[33] = target: T4, Urokinase-type plasminogen activator; test: Binding constant on Urokinase-type plasminogen activator was determined at 0 percent and at 98 minutes for maximum inhibition and no enzyme activity was recovered over the 2 h-time
Prothrombin [34] = target: T6, Prothrombin; test: Binding constant on thrombin was determined at 0 percent and at 93 minutes for maximum inhibition and no enzyme activity was recovered over the 2 h-time
Prothrombin [35] = target: T6, Prothrombin; test: Rate constant of acylation on thrombin was determined at 0 percent and at 93 minutes for maximum inhibition and no enzyme activity was recovered over the 2 h-time
Prothrombin [36] = target: T6, Prothrombin; test: Specificity constant on thrombin was determined at 0 percent and at 93 minutes for maximum inhibition and no enzyme activity was recovered over the 2 h-time
[37] = target: Chymotrypsinogen A (Bos taurus) (UniProt P00766); test: Specificity constant on alpha-chymotrypsin was determined at 15 percent and at 78 minutes for maximum inhibition and no enzyme activity was recovered over the 2 h-time
[38] = target: T4, Urokinase-type plasminogen activator; test: Rate constant of acylation on Urokinase-type plasminogen activator […] was determined at 0 percent and at 98 minutes for maximum inhibition and no enzyme activity was recovered over the 2 h-time
[39] = target: T4, Urokinase-type plasminogen activator; test: Specificity constant on Urokinase-type plasminogen activator was determined at 0 percent and at 98 minutes for maximum inhibition and no enzyme activity was recovered over the 2 h-time
[40] = target: Chymotrypsinogen A (Bos taurus) (UniProt P00766); test: Binding constant on alpha-chymotrypsin was determined at 15 percent and at 78 minutes for maximum inhibition and no enzyme activity was recovered over the 2 h-time
[41] = target: Chymotrypsinogen A (Bos taurus) (UniProt P00766); test: Rate constant of acylation on alpha-chymotrypsin was determined at 15 percent and at 78 minutes for maximum inhibition and no enzyme activity was recovered over the 2 h-time

ka/Ki [1]: 500 M⁻¹ s⁻¹ | ka [2]: 0.6 min⁻¹ | Ks/i [3]: 22.7 µM | ka/Ki [4]: 167 M⁻¹ s⁻¹ | Ks/i [5]: 393 µM | ka [6]: 4.47 min⁻¹
Structure (SMILES): C=C1CC(C)CC(=O)O1 (stereo unspecified)

Kd (Plasminogen [7]): Not measurable | Kd [8]: 0.00015 s⁻¹ | Kd (Serine protease 1 [9]): 3.3e-05 s⁻¹
Structure (SMILES): C=C1CC(c2ccc(NC(=N)N)cc2)CC(=O)O1 (stereo unspecified)

Ks/i (Plasminogen [10]): 1.19 µM | Ks/i [11]: 0.12 µM | Ks/i (Prothrombin [12]): 14.8 µM | Kd (Prothrombin [13]): 0.000217 s⁻¹ | Ks/i (Serine protease 1 [14]): 0.08 µM | ka (Serine protease 1 [15]): 18.4 min⁻¹ | ka/Ki (Serine protease 1 [16]): 3.83e+06 M⁻¹ s⁻¹ | ka (Plasminogen [17]): 10.2 min⁻¹ | ka/Ki (Plasminogen [18]): 150000 M⁻¹ s⁻¹ | ka (Prothrombin [19]): 27.2 min⁻¹ | ka/Ki (Prothrombin [20]): 33300 M⁻¹ s⁻¹ | ka [21]: Not measurable | ka [22]: 7.56 min⁻¹ | ka/Ki [23]: 1.26e+07 M⁻¹ s⁻¹
Structure (SMILES): N=C(N)NCc1ccc(C2CC/C(=C\I)OC2=O)cc1 (stereo unspecified)

ka/Ki [24]: 667 M⁻¹ s⁻¹ | ka [25]: 1.8 min⁻¹ | Ks/i [26]: 43.5 µM | ka [27]: 0.43 min⁻¹ | ka/Ki [28]: 33.3 M⁻¹ s⁻¹ | Ks/i [29]: 284 µM
Structure (SMILES): CC1(C)CC(=O)O/C(=C/Br)C1

ka (Plasminogen [30]): 13.6 min⁻¹ | ka/Ki (Plasminogen [31]): 7.55e+06 M⁻¹ s⁻¹ | Ks/i (Plasminogen [32]): 0.03 µM | Ks/i [33]: 0.16 µM | Ks/i (Prothrombin [34]): 0.93 µM | ka (Prothrombin [35]): 12.9 min⁻¹ | ka/Ki (Prothrombin [36]): 233000 M⁻¹ s⁻¹ | ka/Ki [37]: 50000 M⁻¹ s⁻¹ | ka [38]: 18.6 min⁻¹ | ka/Ki [39]: 1.95e+06 M⁻¹ s⁻¹ | Ks/i [40]: 2.4 µM | ka [41]: 7.22 min⁻¹
Structure (SMILES): N=C(N)Nc1ccc(C2CC/C(=C\I)OC2=O)cc1 (stereo unspecified)
